The target in one test is T1, human GCGR (Homo sapiens, UniProt P47871).
T1 construct: expressed in transfected cells; growth medium holds Blasticidin and Hygromycin
The test is described as follows: cAMP activity assay at the Glucagon receptor (GCGR). It counts as cell-based. As to conditions: for hGCGR/hGLP1R (hTone): ratio of GCGR EC50 to GLP1R EC50. The gist of the method: (§1)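 Peptides serially diluted from DMSO (10 points) and added to frozen-stock cells bearing human GLP1R (10,000 cells/well) or GCGR (30,000 cells/well), 1 h at RT, dark. EC50 by four-parameter logistic fit of HitHunter cAMPXS luminescence, read following overnight RT incubation.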

In another test the target is T2, human GLP1R (Homo sapiens, UniProt P43220).
T2 construct: expressed in transfected cells; growth medium holds Blasticidin and Hygromycin
T2 sequence (P43220 24-463): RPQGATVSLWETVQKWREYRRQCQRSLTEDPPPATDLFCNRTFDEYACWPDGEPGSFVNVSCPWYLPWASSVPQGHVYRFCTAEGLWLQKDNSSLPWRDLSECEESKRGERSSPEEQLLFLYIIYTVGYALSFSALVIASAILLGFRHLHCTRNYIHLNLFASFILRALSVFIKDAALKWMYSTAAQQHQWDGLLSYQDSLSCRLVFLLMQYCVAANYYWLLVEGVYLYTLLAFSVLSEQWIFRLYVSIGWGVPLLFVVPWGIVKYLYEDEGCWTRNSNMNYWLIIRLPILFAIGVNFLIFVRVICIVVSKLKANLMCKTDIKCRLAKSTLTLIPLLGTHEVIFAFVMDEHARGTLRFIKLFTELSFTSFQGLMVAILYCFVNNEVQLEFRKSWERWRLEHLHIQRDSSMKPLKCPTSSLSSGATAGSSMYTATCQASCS
The test is described as follows: cAMP activity assay at the GLP-1 receptor (GLP1R). It counts as cell-based. Summed up: as §1

Where [1] appears, read: cells expressing human GCGR, cAMP production, buffer with or without 20% human serum (not stated which), read-out: GCGR EC50 human.
[2] abbreviates: summary statement: EC50 at each of the glucagon and GLP-1 receptors, read-out: EC50 at the glucagon receptor.
[3] abbreviates: summary statement: EC50 at each of the glucagon and GLP-1 receptors, read-out: EC50 at the GLP-1 receptor.

Read-outs that look alike come from different tables or passages of the source. Numbered stars: 1 amine (or outer) side, 2 acyl side, 3 side chain; on linkers, the order of the positions; unused ones are H or OH. Square brackets hold non-standard residues; d marks the D form. Side chains are listed from the residue outwards. Peptide text beside a SMILES is read from it. * marks the point of attachment. C20 diacid = O=C(O)CCCCCCCCCCCCCCCCCCC(=O)*; Phe(4-CH2NH2) = NCc1ccc(C[C@H](N)C(=O)O)cc1; C18 diacid = O=C(O)CCCCCCCCCCCCCCCCC(=O)*; C16 diacid = O=C(O)CCCCCCCCCCCCCCC(=O)*; γGlu = O=C(O)[C@H](CCC(=O)[*:2])N[*:1]; Met(O2) = CS(=O)(=O)CC[C@H](N)C(=O)O; αMeD = C[C@](N)(CC(=O)O)C(=O)O; αMeS = C[C@](N)(CO)C(=O)O; AEEA = NCCOCCOCC(=O)O; Aib = CC(C)(N)C(=O)O

T1 sequence (P47871 26-477): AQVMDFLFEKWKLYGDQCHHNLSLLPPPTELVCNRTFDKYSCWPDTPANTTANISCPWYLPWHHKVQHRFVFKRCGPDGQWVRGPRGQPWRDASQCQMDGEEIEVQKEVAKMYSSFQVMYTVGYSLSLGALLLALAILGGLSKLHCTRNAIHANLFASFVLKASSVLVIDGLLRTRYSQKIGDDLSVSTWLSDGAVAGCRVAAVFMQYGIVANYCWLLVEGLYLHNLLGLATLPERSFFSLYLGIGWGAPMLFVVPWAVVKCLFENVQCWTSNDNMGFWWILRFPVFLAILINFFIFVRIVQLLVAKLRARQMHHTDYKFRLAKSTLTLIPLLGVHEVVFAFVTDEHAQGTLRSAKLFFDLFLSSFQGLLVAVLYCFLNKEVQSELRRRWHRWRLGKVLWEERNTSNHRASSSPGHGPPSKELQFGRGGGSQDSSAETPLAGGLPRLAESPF

One may read the EC50 as the concentration at which the effect is half-maximal. As to `CC(C)C[C@H](NC(=O)[C@H](Cc1ccc(O)cc1)NC(=O)[C@H](CCCCN)NC(=O)[C@H](CO)NC(=O)[C@H](Cc1ccc(O)cc1)NC(=O)[C@H](CC(=O)O)NC(=O)[C@H](CO)NC(=O)[C@@H](NC(=O)[C@H](Cc1ccccc1)NC(=O)[C@@H](NC(=O)CNC(=O)[C@H](CCC(N)=O)NC(=O)C(C)(C)NC(=O)[C@@H](N)Cc1c[nH]cn1)[C@@H](C)O)[C@@H](C)O)C(=O)N[C@@H](CC(=O)O)C(=O)N[C@@H](C)C(=O)N[C@@H](CCCNC(=N)N)C(=O)N[C@@H](C)C(=O)N[C@@H](C)C(=O)N[C@@H](CCC(N)=O)C(=O)N[C@@H](CCCCNC(=O)COCCOCCNC(=O)COCCOCCNC(=O)CC[C@H](NC(=O)CCCCCCCCCCCCCCCCC(=O)O)C(=O)O)C(=O)N[C@@H](Cc1ccccc1)C(=O)N[C@H](C(=O)N[C@@H](CCC(N)=O)C(=O)N[C@@H](Cc1c[nH]c2ccccc12)C(=O)N[C@@H](CC(C)C)C(=O)N[C@@H](CCS(C)(=O)=O)C(=O)N[C@@](C)(CC(=O)O)C(=O)N[C@H](C(N)=O)[C@@H](C)O)C(C)C` [TP681] (H-H[Aib]QGTFTSDYSKYLDARAAQK([AEEA-AEEA-γGlu-C18 diacid])FVQWL[Met(O2)][αMeD]T-NH2; N-terminus assumed), the figures for the 50% effective concentration (EC50) at human GCGR (setting [1]), at human GCGR (setting [2]) and at human GLP1R (setting [3]) were 0.27 nM, < 5 nM and < 5 nM, respectively. Moreover, the “hGCGR/hGLP1R (hTone)” value on human GCGR stood at 1.8.

Regarding `CC(C)C[C@H](NC(=O)[C@H](Cc1ccc(O)cc1)NC(=O)[C@H](CCCCN)NC(=O)[C@H](CO)NC(=O)[C@H](Cc1ccc(O)cc1)NC(=O)[C@H](CC(=O)O)NC(=O)[C@H](CO)NC(=O)[C@@H](NC(=O)[C@H](Cc1ccccc1)NC(=O)[C@@H](NC(=O)CNC(=O)[C@H](CCC(N)=O)NC(=O)[C@](C)(CO)NC(=O)[C@@H](N)Cc1c[nH]cn1)[C@@H](C)O)[C@@H](C)O)C(=O)N[C@@H](CC(=O)O)C(=O)NC(C)(C)C(=O)N[C@@H](CCCNC(=N)N)C(=O)N[C@@H](C)C(=O)N[C@@H](C)C(=O)N[C@@H](CCCCNC(=O)COCCOCCNC(=O)COCCOCCNC(=O)CC[C@H](NC(=O)CCCCCCCCCCCCCCC(=O)O)C(=O)O)C(=O)N[C@@H](CC(=O)O)C(=O)N[C@@H](Cc1ccccc1)C(=O)N[C@H](C(=O)N[C@@H](CCC(N)=O)C(=O)N[C@@H](Cc1c[nH]c2ccccc12)C(=O)N[C@@H](CC(C)C)C(=O)N[C@@H](CCS(C)(=O)=O)C(=O)N[C@@](C)(CC(=O)O)C(=O)N[C@H](C(N)=O)[C@@H](C)O)C(C)C` [TP618] (H-H[αMeS]QGTFTSDYSKYLD[Aib]RAAK([AEEA-AEEA-γGlu-C16 diacid])DFVQWL[Met(O2)][αMeD]T-NH2), the EC50 is 0.36 nM on human GCGR (setting [1]), < 5 nM at human GCGR (setting [2]) and < 5 nM at human GLP1R (setting [3]). Besides, the “hGCGR/hGLP1R (hTone)” value on human GCGR is listed as 0.1.

For the molecule `CC(C)C[C@H](NC(=O)[C@H](Cc1ccc(O)cc1)NC(=O)[C@H](CCCCN)NC(=O)[C@H](CO)NC(=O)[C@H](Cc1ccc(O)cc1)NC(=O)[C@H](CC(=O)O)NC(=O)[C@H](CO)NC(=O)[C@@H](NC(=O)[C@H](Cc1ccccc1)NC(=O)[C@@H](NC(=O)CNC(=O)[C@H](CCC(N)=O)NC(=O)C(C)(C)NC(=O)[C@@H](N)Cc1c[nH]cn1)[C@@H](C)O)[C@@H](C)O)C(=O)N[C@@H](CC(=O)O)C(=O)N[C@@H](C)C(=O)N[C@@H](CCCNC(=N)N)C(=O)N[C@@H](C)C(=O)N[C@@H](C)C(=O)N[C@@H](CCC(N)=O)C(=O)N[C@@H](CC(=O)O)C(=O)N[C@@H](Cc1ccccc1)C(=O)N[C@H](C(=O)N[C@@H](CCC(N)=O)C(=O)N[C@@H](Cc1c[nH]c2ccccc12)C(=O)N[C@@H](CC(C)C)C(=O)N[C@@H](CCS(C)(=O)=O)C(=O)N[C@@H](CCCCNC(=O)COCCOCCNC(=O)COCCOCCNC(=O)CC[C@H](NC(=O)CCCCCCCCCCCCCCCCCCC(=O)O)C(=O)O)C(=O)N[C@H](C(N)=O)[C@@H](C)O)C(C)C` [TP603] (H-H[Aib]QGTFTSDYSKYLDARAAQDFVQWL[Met(O2)]K([AEEA-AEEA-γGlu-C20 diacid])T-NH2; N-terminus assumed), on human GCGR, the “hGCGR/hGLP1R (hTone)” value was 1.6. Besides, the EC50 on human GCGR (setting [2]) and at human GLP1R (setting [3]) was < 5 nM in each case.

On to `CC(C)C[C@H](NC(=O)[C@H](Cc1ccc(O)cc1)NC(=O)[C@H](CCCCN)NC(=O)[C@H](CO)NC(=O)[C@H](Cc1ccc(O)cc1)NC(=O)[C@H](CC(=O)O)NC(=O)[C@H](CO)NC(=O)[C@@H](NC(=O)[C@H](Cc1ccccc1)NC(=O)[C@@H](NC(=O)CNC(=O)[C@H](CCC(N)=O)NC(=O)C(C)(C)NC(=O)[C@@H](N)Cc1c[nH]cn1)[C@@H](C)O)[C@@H](C)O)C(=O)N[C@@H](CC(=O)O)C(=O)N[C@@H](C)C(=O)N[C@@H](CCCNC(=N)N)C(=O)N[C@@H](C)C(=O)N[C@@H](C)C(=O)N[C@@H](CCCCNC(=O)COCCOCCNC(=O)COCCOCCNC(=O)CC[C@H](NC(=O)CCCCCCCCCCCCCCCCC(=O)O)C(=O)O)C(=O)N[C@@H](CC(=O)O)C(=O)N[C@@H](Cc1ccccc1)C(=O)N[C@H](C(=O)N[C@@H](CCC(N)=O)C(=O)N[C@@H](Cc1c[nH]c2ccccc12)C(=O)N[C@@H](CC(C)C)C(=O)N[C@@H](CCS(C)(=O)=O)C(=O)N[C@@](C)(CC(=O)O)C(=O)N[C@H](C(=O)O)[C@@H](C)O)C(C)C` [TP735] (H-H[Aib]QGTFTSDYSKYLDARAAK([AEEA-AEEA-γGlu-C18 diacid])DFVQWL[Met(O2)][αMeD]T-OH; N-terminus assumed), for which the “hGCGR/hGLP1R (hTone)” value on human GCGR amounted to 1.4. Further, the half-maximal effective concentration (EC50) at human GCGR (setting [2]) and on human GLP1R (setting [3]) was < 5 nM each time.

Turning to `CC(C)C[C@H](NC(=O)[C@H](Cc1c[nH]c2ccccc12)NC(=O)[C@H](CCCCNC(=O)COCCOCCNC(=O)COCCOCCNC(=O)CC[C@H](NC(=O)CCCCCCCCCCCCCCC(=O)O)C(=O)O)NC(=O)[C@@H](NC(=O)[C@H](Cc1ccccc1)NC(=O)[C@H](CC(=O)O)NC(=O)[C@H](CCC(N)=O)NC(=O)[C@H](C)NC(=O)[C@H](C)NC(=O)[C@H](CCCNC(=N)N)NC(=O)C(C)(C)NC(=O)[C@H](CC(=O)O)NC(=O)[C@H](CC(C)C)NC(=O)[C@H](Cc1ccc(O)cc1)NC(=O)[C@H](CCCCN)NC(=O)[C@H](CO)NC(=O)[C@H](Cc1ccc(O)cc1)NC(=O)[C@H](CC(=O)O)NC(=O)[C@H](CO)NC(=O)[C@@H](NC(=O)[C@H](Cc1ccccc1)NC(=O)[C@@H](NC(=O)CNC(=O)[C@H](CCC(N)=O)NC(=O)C(C)(C)NC(=O)[C@@H](N)Cc1c[nH]cn1)[C@@H](C)O)[C@@H](C)O)C(C)C)C(=O)N[C@@H](CCS(C)(=O)=O)C(=O)N[C@@H](CCC(=O)N[C@H](C(N)=O)[C@@H](C)O)C(=O)O` [TP828] (H-H[Aib]QGTFTSDYSKYLD[Aib]RAAQDFVK([AEEA-AEEA-γGlu-C16 diacid])WL[Met(O2)][γGlu]T-NH2), the “hGCGR/hGLP1R (hTone)” value at human GCGR is 0.4. For the same molecule, the EC50 at human GCGR (setting [2]) and at human GLP1R (setting [3]) was < 5 nM throughout.

In the case of `CC(C)C[C@H](NC(=O)[C@H](Cc1ccc(O)cc1)NC(=O)[C@H](CCCCN)NC(=O)[C@H](CO)NC(=O)[C@H](Cc1ccc(O)cc1)NC(=O)[C@H](CC(=O)O)NC(=O)[C@H](CO)NC(=O)[C@@H](NC(=O)[C@H](Cc1ccccc1)NC(=O)[C@@H](NC(=O)CNC(=O)[C@H](CCC(N)=O)NC(=O)C(C)(C)NC(=O)[C@@H](N)Cc1c[nH]cn1)[C@@H](C)O)[C@@H](C)O)C(=O)N[C@@H](CC(=O)O)C(=O)N[C@@H](C)C(=O)N[C@@H](CCCNC(=N)N)C(=O)N[C@@H](C)C(=O)N[C@@H](C)C(=O)N[C@@H](CCCCNC(=O)COCCOCCNC(=O)COCCOCCNC(=O)CC[C@H](NC(=O)CCCCCCCCCCCCCCCCC(=O)O)C(=O)O)C(=O)N[C@@H](CCC(=O)O)C(=O)N[C@@H](Cc1ccccc1)C(=O)N[C@H](C(=O)N[C@@H](CCC(N)=O)C(=O)N[C@@H](Cc1c[nH]c2ccccc12)C(=O)N[C@@H](CC(C)C)C(=O)N[C@@H](CCS(C)(=O)=O)C(=O)N[C@@](C)(CC(=O)O)C(=O)N[C@H](C(N)=O)[C@@H](C)O)C(C)C` [TP713] (H-H[Aib]QGTFTSDYSKYLDARAAK([AEEA-AEEA-γGlu-C18 diacid])EFVQWL[Met(O2)][αMeD]T-NH2; N-terminus assumed), the “hGCGR/hGLP1R (hTone)” value on human GCGR was 2.2. Also, the EC50 is < 5 nM on human GCGR (setting [2]); 0.71 nM at human GLP1R (cells expressing human GLP1R, cAMP production, buffer with or without 20% human serum (not stated which), read-out: GLP1R EC50 human); < 5 nM on human GLP1R (setting [3]).

As to `CC(C)C[C@H](NC(=O)[C@H](Cc1ccc(O)cc1)NC(=O)[C@H](CCCCN)NC(=O)[C@H](CO)NC(=O)[C@H](Cc1ccc(O)cc1)NC(=O)[C@H](CC(=O)O)NC(=O)[C@H](CO)NC(=O)[C@@H](NC(=O)[C@H](Cc1ccccc1)NC(=O)[C@@H](NC(=O)CNC(=O)[C@H](CCC(N)=O)NC(=O)C(C)(C)NC(=O)[C@@H](N)Cc1c[nH]cn1)[C@@H](C)O)[C@@H](C)O)C(=O)N[C@@H](CC(=O)O)C(=O)N[C@@H](C)C(=O)N[C@@H](CCCNC(=N)N)C(=O)N[C@@H](C)C(=O)N[C@@H](C)C(=O)N[C@@H](CCC(N)=O)C(=O)N[C@@H](CC(=O)O)C(=O)N[C@@H](Cc1ccccc1)C(=O)N[C@H](C(=O)N[C@@H](CCC(N)=O)C(=O)N[C@@H](Cc1c[nH]c2ccccc12)C(=O)N[C@@H](CC(C)C)C(=O)N[C@@H](CCS(C)(=O)=O)C(=O)N[C@@H](Cc1ccc(CNC(=O)COCCOCCNC(=O)COCCOCCNC(=O)CC[C@H](NC(=O)CCCCCCCCCCCCCCCCCCC(=O)O)C(=O)O)cc1)C(=O)N[C@H](C(N)=O)[C@@H](C)O)C(C)C` [TP605] (H-H[Aib]QGTFTSDYSKYLDARAAQDFVQWL[Met(O2)][Phe(4-CH2NH2)]([AEEA-AEEA-γGlu-C20 diacid])T-NH2), the EC50 on human GCGR (setting [2]) and at human GLP1R (setting [3]) was < 5 nM throughout.

The values above are taken from patent publication US11566057B2, “Long-acting co-agonists of the glucagon and GLP-1 receptors” (Merck Sharp & Dohme Corp., priority 2017, dated 2023).
